Key:
Assay type in all cases: biochemical
LMWPTP = biological target: T1, LMWPTP (Homo sapiens, UniProt P24666); assay: PTP inhibition assay (pNPP); details: pNPP at Km, pH 7.0, 25° C.
T1 sequence (P24666 1-158): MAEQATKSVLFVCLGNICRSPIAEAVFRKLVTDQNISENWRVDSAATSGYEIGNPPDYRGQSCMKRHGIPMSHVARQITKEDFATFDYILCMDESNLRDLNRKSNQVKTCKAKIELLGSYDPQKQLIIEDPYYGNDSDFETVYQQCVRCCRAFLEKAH

Laforin = biological target: T2, Laforin (Homo sapiens, UniProt O95278); assay: PTP inhibition assay (pNPP); details: for IC50: pNPP at Km, pH 7.0, 25° C., read-out: IC50 Laforin
T2 sequence (O95278 1-331): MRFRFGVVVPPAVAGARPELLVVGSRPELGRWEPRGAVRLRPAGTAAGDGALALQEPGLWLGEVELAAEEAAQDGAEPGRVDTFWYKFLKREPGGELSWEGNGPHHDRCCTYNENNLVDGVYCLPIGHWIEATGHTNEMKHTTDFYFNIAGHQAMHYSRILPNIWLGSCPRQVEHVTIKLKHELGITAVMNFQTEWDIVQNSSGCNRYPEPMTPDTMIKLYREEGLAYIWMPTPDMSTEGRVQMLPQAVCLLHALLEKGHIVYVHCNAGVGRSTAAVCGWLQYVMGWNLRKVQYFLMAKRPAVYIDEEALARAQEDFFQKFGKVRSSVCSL

PTP1B = biological target: T3, PTP1B (Homo sapiens, UniProt P18031); assay: PTP inhibition assay (pNPP); details: pNPP at Km, pH 7.0, 25° C.
T3 sequence (P18031 1-435): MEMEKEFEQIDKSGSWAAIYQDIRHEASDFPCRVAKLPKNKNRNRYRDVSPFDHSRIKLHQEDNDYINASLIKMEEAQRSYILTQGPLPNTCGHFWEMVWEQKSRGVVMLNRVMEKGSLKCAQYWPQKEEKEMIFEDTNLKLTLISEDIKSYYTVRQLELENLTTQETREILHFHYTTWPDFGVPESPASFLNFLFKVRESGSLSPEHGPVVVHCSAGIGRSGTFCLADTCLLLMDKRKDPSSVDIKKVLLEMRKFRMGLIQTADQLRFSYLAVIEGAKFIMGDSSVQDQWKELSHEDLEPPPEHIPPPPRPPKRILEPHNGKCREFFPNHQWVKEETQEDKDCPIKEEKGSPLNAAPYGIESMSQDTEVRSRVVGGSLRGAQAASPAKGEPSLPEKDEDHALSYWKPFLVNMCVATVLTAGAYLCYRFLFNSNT

LYP = biological target: T4, LYP (Homo sapiens, UniProt Q9Y2R2); assay: PTP inhibition assay (pNPP); details: pNPP at Km, pH 7.0, 25° C.
T4 sequence (Q9Y2R2 1-807): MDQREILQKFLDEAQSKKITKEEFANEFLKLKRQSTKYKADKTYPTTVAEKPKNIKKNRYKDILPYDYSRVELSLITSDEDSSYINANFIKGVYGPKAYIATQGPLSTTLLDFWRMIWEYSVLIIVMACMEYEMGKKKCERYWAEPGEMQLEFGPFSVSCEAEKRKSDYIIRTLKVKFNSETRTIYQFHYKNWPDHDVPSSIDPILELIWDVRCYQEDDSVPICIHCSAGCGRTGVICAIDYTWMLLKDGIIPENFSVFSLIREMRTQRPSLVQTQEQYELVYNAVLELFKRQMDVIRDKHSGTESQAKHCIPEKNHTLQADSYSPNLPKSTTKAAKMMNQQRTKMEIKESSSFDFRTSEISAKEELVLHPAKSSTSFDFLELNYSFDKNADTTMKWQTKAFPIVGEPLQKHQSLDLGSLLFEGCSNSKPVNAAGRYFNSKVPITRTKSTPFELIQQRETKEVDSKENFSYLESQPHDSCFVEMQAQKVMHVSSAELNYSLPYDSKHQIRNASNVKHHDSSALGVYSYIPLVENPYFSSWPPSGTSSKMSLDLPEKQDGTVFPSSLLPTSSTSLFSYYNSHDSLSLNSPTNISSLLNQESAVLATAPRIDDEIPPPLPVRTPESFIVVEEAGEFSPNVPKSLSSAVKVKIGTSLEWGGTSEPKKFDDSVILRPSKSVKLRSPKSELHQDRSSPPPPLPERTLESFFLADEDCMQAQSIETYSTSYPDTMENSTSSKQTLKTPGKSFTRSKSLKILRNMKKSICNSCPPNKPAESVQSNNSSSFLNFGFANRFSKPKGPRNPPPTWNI

SHP2 = biological target: T5, SHP2 (Homo sapiens, UniProt Q06124); assay: SHP2 phosphatase inhibition assay (pNPP); details: pNPP at Km, pH 7.0, 25° C.; read-out: IC50 SHP2
T5 sequence (Q06124 224-528): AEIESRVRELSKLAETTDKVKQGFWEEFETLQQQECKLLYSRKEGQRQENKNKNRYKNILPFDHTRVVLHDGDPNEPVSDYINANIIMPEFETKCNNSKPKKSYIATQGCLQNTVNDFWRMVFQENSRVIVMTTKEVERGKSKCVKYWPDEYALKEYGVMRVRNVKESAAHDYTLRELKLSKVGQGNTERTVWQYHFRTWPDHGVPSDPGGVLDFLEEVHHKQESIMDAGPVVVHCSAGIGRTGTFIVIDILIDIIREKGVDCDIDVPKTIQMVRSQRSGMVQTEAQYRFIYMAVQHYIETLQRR

CD45 = biological target: T6, CD45 (Homo sapiens, UniProt P08575); assay: PTP inhibition assay (pNPP); details: pNPP at Km, pH 7.0, 25° C.
T6 sequence (P08575 26-1306): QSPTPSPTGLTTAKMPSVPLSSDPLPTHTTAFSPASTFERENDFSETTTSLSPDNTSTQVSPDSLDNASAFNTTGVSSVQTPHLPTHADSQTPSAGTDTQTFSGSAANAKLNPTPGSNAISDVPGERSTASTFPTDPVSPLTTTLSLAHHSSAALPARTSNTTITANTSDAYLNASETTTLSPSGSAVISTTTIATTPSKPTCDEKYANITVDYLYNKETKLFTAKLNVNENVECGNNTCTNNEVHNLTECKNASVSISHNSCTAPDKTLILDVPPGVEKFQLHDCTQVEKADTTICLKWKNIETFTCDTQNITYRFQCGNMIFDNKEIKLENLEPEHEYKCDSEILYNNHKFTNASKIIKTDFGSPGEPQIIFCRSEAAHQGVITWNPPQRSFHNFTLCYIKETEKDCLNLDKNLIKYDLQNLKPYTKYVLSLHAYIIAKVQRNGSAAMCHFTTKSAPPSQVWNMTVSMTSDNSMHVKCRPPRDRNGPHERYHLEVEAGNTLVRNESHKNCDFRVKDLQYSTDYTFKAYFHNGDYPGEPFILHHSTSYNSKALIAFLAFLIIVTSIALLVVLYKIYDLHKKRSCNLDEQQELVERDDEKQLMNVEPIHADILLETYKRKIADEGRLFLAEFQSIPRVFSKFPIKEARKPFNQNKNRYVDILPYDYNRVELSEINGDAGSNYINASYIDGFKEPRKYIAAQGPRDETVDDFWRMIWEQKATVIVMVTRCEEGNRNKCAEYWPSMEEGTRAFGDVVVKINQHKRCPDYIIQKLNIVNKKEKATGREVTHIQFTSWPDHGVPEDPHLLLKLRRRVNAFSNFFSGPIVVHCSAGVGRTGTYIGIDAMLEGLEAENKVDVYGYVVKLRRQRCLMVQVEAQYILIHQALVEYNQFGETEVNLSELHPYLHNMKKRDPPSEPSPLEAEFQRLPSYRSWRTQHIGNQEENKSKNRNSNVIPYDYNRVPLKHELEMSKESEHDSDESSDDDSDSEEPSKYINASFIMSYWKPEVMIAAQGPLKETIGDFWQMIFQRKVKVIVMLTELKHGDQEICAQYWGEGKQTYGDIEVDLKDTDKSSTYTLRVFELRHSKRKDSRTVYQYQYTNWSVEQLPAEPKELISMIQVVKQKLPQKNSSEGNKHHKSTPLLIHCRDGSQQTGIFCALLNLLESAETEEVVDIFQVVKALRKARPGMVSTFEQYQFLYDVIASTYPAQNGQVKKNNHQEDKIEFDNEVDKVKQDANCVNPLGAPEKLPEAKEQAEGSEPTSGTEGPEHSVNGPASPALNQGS

Row | SMILES | IC50 (LMWPTP) [µM] | IC50 (Laforin) [µM] | IC50 (PTP1B) [µM] | IC50 (LYP) [µM] | IC50 (SHP2) [µM] | IC50 (CD45) [µM] | Inhibition of Laforin at 200 μM (Laforin; 200 μM) | Inhibition of Laforin at 100 μM (Laforin; 100 μM)
1 | Cc1cc2nc(NC(=O)C(c3ccccc3)S(=O)(=O)O)sc2cc1C (centres unmarked) [Compound L319N15-04] | 4.8 | 1.1 | > 200 | 90 | 112 | > 200 | – | –
2 | O=C(Nc1nc2ccccc2s1)C(c1ccc([N+](=O)[O-])cc1)S(=O)(=O)O (centres unmarked) [Compound L319N15-16] | > 200 | 66 | > 200 | 180 | 135 | > 200 | – | –
3 | O=C(Nc1nc2ccc(F)cc2s1)C(c1ccccc1)S(=O)(=O)O (centres unmarked) [Compound L319N15-05] | 4.2 | 1.7 | > 200 | 150 | 173 | > 200 | – | –
4 | O=C(Nc1nc2ccccc2s1)C(c1ccccc1F)S(=O)(=O)O (centres unmarked) [Compound L319N15-17] | > 100 | 14 | > 100 | > 100 | > 100 | > 100 | – | –
5 | O=C(O)c1ccc2nc(NC(=O)C(c3ccccc3)S(=O)(=O)O)sc2c1 (centres unmarked) [Compound L319N15-13] | 70 | > 200 | > 200 | 31 | 83 | 90 | did not inhibit | –
6 | Nc1ccc2nc(NC(=O)C(c3ccccc3)S(=O)(=O)O)sc2c1 (centres unmarked) [Compound L319N15-12] | 14 | 3.3 | > 200 | 166 | 190 | 160 | – | –
7 | O=C(Nc1nc2ccccc2s1)C(c1ccccc1Cl)S(=O)(=O)O (centres unmarked) [Compound L319N15-18] | > 100 | 32 | > 100 | > 100 | > 100 | > 100 | – | –
8 | Cc1cccc2sc(NC(=O)C(c3ccccc3)S(=O)(=O)O)nc12 (centres unmarked) [Compound L319N15-02] | 9.6 | 4 | > 200 | 110 | 129 | > 200 | – | –
9 | Cc1ccc2nc(NC(=O)C(c3ccccc3)S(=O)(=O)O)sc2c1 (centres unmarked) [Compound L319N15-08] | 8.2 | 2 | > 200 | > 200 | > 200 | > 200 | – | –
10 | O=C(Nc1nc2ccc(OC(F)(F)F)cc2s1)C(c1ccccc1)S(=O)(=O)O (centres unmarked) [Compound L319N15-09] | 5.3 | 3.2 | 160 | 20 | 47 | 80 | – | –
11 | COc1ccc2nc(NC(=O)C(c3ccccc3)S(=O)(=O)O)sc2c1 (centres unmarked) [Compound L319N15-10] | 5.8 | 2.1 | > 200 | > 200 | > 200 | > 200 | – | –
12 | O=C(Nc1nc2ccccc2s1)C(c1ccc(Br)cc1)S(=O)(=O)O (centres unmarked) [Compound L319N15-14] | > 200 | 19 | > 200 | > 200 | > 200 | > 200 | – | –
13 | O=C(Nc1nc2ccc(Cl)cc2s1)C(c1ccccc1)S(=O)(=O)O (centres unmarked) [Compound L319N15-06] | 5.6 | 2.3 | 80 | 23 | 30 | 130 | – | –
14 | O=C(Nc1nc2c(Cl)cccc2s1)C(c1ccccc1)S(=O)(=O)O (centres unmarked) [Compound L319N15-01] | 4.6 | 2.2 | 70 | 22 | 41 | – | – | –
15 | O=C(Nc1nccs1)C(c1ccccc1)S(=O)(=O)O (centres unmarked) [Compound L319N13] | – | 8 | > 100 | > 100 | > 100 | > 100 | – | –
16 | O=C(Nc1nc2ccc(O[N+](=O)[O-])cc2s1)C(c1ccccc1)S(=O)(=O)O (centres unmarked) [Compound L319N15-07] | 2.1 | > 200 | > 200 | > 100 | > 200 | > 200 | – | no detectable inhibition
17 | CCOC(=O)c1ccc2nc(NC(=O)C(c3ccccc3)S(=O)(=O)O)sc2c1 (centres unmarked) [Compound L319N15-11] | 3.03 | 1.7 | – | 28 | 55 | 70 | – | –
18 | O=C(Nc1nc(-c2ccccc2)cs1)C(c1ccccc1)S(=O)(=O)O (centres unmarked) [Compound L319N14] | 20 | 6 | 160 | 15 | 31 | 70 | – | –

— patent publication US10494332B2, “Protein tyrosine phosphatases or SHP2 inhibitors and uses thereof” (Indiana University Research and Technology Corporation, priority 2015, dated 2019)
